Laboratory results published in the NIST ThermoML archive (doi:10.1021/je7003758).
Numbers after ± are expanded uncertainties.

Settings: Liquid

CN1CCCC1=O [N-methylpyrrolidone]
mass density [kg/m3]
Settings | 288.15 K | 298.15 K | 308.15 K | 318.15 K
100 kPa | 1036.8 ± 0.3 | 1028 ± 0.3 | 1019.3 ± 0.3 | 1011 ± 0.3
500 kPa | 1036.9 ± 0.3 | 1028.1 ± 0.3 | 1019.5 ± 0.3 | 1011.1 ± 0.3
1000 kPa | 1037.2 ± 0.3 | 1028.4 ± 0.3 | 1019.8 ± 0.3 | 1011.4 ± 0.3
1500 kPa | 1037.4 ± 0.3 | 1028.7 ± 0.3 | 1020 ± 0.3 | 1011.7 ± 0.3
2000 kPa | 1037.7 ± 0.3 | 1028.9 ± 0.3 | 1020.3 ± 0.3 | 1012.1 ± 0.3
2500 kPa | 1037.9 ± 0.3 | 1029.2 ± 0.3 | 1020.6 ± 0.3 | 1012.4 ± 0.3
3000 kPa | 1038.2 ± 0.3 | 1029.4 ± 0.3 | 1020.9 ± 0.3 | 1012.7 ± 0.3
3500 kPa | 1038.4 ± 0.3 | 1029.7 ± 0.3 | 1021.1 ± 0.3 | 1012.9 ± 0.3
4000 kPa | 1038.7 ± 0.3 | 1030 ± 0.3 | 1021.4 ± 0.3 | 1013.2 ± 0.3
4500 kPa | 1038.9 ± 0.3 | 1030.2 ± 0.3 | 1021.6 ± 0.3 | 1013.5 ± 0.3
5000 kPa | 1039.2 ± 0.3 | 1030.5 ± 0.3 | 1021.8 ± 0.3 | 1013.8 ± 0.3
5500 kPa | 1039.4 ± 0.3 | 1030.7 ± 0.3 | 1022.2 ± 0.3 | 1014 ± 0.3
5900 kPa | – | 1031 ± 0.3 | – | –
6000 kPa | 1039.6 ± 0.3 | – | 1022.4 ± 0.3 | 1014.4 ± 0.3
6400 kPa | – | – | 1022.6 ± 0.3 | –
6500 kPa | 1039.9 ± 0.3 | 1031.3 ± 0.3 | – | 1014.6 ± 0.3
6900 kPa | – | 1031.5 ± 0.3 | – | –
7000 kPa | 1040.2 ± 0.3 | – | – | 1014.9 ± 0.3
7100 kPa | – | – | 1023 ± 0.3 | –
7500 kPa | 1040.4 ± 0.3 | 1031.8 ± 0.3 | 1023.1 ± 0.3 | 1015.2 ± 0.3
8000 kPa | 1040.7 ± 0.3 | 1032 ± 0.3 | – | 1015.5 ± 0.3
8100 kPa | – | – | 1023.5 ± 0.3 | –
8500 kPa | 1041 ± 0.3 | 1032.3 ± 0.3 | 1023.7 ± 0.3 | 1015.8 ± 0.3
9000 kPa | 1041.2 ± 0.3 | 1032.5 ± 0.3 | 1024 ± 0.3 | 1016 ± 0.3
9500 kPa | 1041.4 ± 0.3 | – | 1024.3 ± 0.3 | 1016.3 ± 0.3
9600 kPa | – | 1032.9 ± 0.3 | – | –
10000 kPa | 1041.7 ± 0.3 | 1033.1 ± 0.3 | 1024.6 ± 0.3 | 1016.6 ± 0.3
10400 kPa | – | – | 1024.8 ± 0.3 | –
10500 kPa | 1042 ± 0.4 | 1033.3 ± 0.3 | – | 1016.9 ± 0.3
11000 kPa | 1042.2 ± 0.4 | 1033.6 ± 0.3 | – | 1017.3 ± 0.3
11100 kPa | – | – | 1025.1 ± 0.3 | –
11400 kPa | – | – | – | 1017.6 ± 0.3
11500 kPa | 1042.5 ± 0.4 | 1033.8 ± 0.3 | 1025.3 ± 0.3 | –
12000 kPa | – | 1034.1 ± 0.3 | 1025.5 ± 0.3 | 1017.8 ± 0.3
12100 kPa | 1042.7 ± 0.4 | – | – | –
12500 kPa | 1042.9 ± 0.4 | 1034.3 ± 0.3 | 1025.8 ± 0.3 | 1018 ± 0.3
12900 kPa | – | – | – | 1018.3 ± 0.3
13000 kPa | 1043.1 ± 0.4 | 1034.6 ± 0.3 | 1026 ± 0.3 | –
13500 kPa | 1043.4 ± 0.4 | 1034.8 ± 0.3 | 1026.3 ± 0.3 | 1018.5 ± 0.3
14000 kPa | 1043.6 ± 0.4 | 1035.1 ± 0.3 | 1026.5 ± 0.3 | 1018.8 ± 0.3
14400 kPa | – | 1035.3 ± 0.4 | – | –
14500 kPa | 1043.8 ± 0.4 | – | 1026.8 ± 0.3 | 1019.1 ± 0.3
14900 kPa | – | 1035.5 ± 0.4 | – | –
15000 kPa | 1044.1 ± 0.4 | – | 1027 ± 0.3 | 1019.4 ± 0.3
15500 kPa | 1044.3 ± 0.4 | 1035.8 ± 0.4 | 1027.3 ± 0.3 | 1019.7 ± 0.3
16000 kPa | 1044.5 ± 0.4 | 1036 ± 0.4 | 1027.5 ± 0.3 | 1019.9 ± 0.3
16500 kPa | 1044.8 ± 0.4 | 1036.3 ± 0.4 | 1027.7 ± 0.3 | 1020.2 ± 0.3
17000 kPa | 1045 ± 0.4 | 1036.5 ± 0.4 | 1028 ± 0.3 | 1020.4 ± 0.3
17500 kPa | 1045.2 ± 0.4 | 1036.7 ± 0.4 | 1028.3 ± 0.3 | 1020.7 ± 0.3
17900 kPa | – | 1037 ± 0.4 | – | –
18000 kPa | 1045.4 ± 0.4 | – | 1028.5 ± 0.3 | 1021 ± 0.3
18500 kPa | – | 1037.2 ± 0.4 | 1028.7 ± 0.3 | 1021.3 ± 0.3
18600 kPa | 1045.7 ± 0.4 | – | – | –
19000 kPa | 1046 ± 0.4 | 1037.4 ± 0.4 | 1029 ± 0.3 | 1021.5 ± 0.3
19500 kPa | 1046.2 ± 0.4 | 1037.7 ± 0.4 | 1029.2 ± 0.4 | –
19600 kPa | – | – | – | 1021.9 ± 0.3
20000 kPa | 1046.4 ± 0.4 | 1037.9 ± 0.4 | 1029.4 ± 0.4 | 1022 ± 0.3
